Test results published in patent US8518946B2, “Salts of (R)-7-[3-amino-4-(2,4,5-trifluorophenyl)butanoyl]-3-trifluoromethyl-5,6,7,8-tetrahydroimidazo[1,5-a] pyrazine-1-carboxylic acid, preparation method and medical use thereof” (Jiangsu Hengrui Medicine Co., Ltd., priority 2009, dated 2013).
Where two headings read alike, the source gives them in different places.

Tests used:
normal ICR mice = test: Hypoglycemic effect, oral glucose tolerance in normal ICR mice; type: in vivo; conditions: 10 mg/kg by gavage, glucose 4 g/kg 15 minutes after administration
Protocol: To observe the effects on oral glucose tolerance of the compounds of Example 1-4 and Example 8-12 in normal ICR mice (SINO-BRITSH SIPPR/BK LAB.ANIMAL LTD., CO), the hypoglycemic effects in vivo have been evaluated using blood-glucose meter to measure and analyze the sugar content of the samples at different time points during 2 hours. The samples were taken from the mouse's tail.
The administration dose was 10 mg/kg, and the blank was administered with water. Both groups contained 5% DMSO.
The mice were administered by gavage. 4 g/kg of 10% glucose solution was administered (0.8 mL to each mice) 15 minutes after administration.
The mice were administered according to above dose (the blank group was administrated with 5% DMSO aqueous solution) and the blood sugar value was measured (−15 minutes).
15 minutes after administration, the mice were administered of 4 g/kg of 20% glucose solution and the values of blood sugar were tested by Roche ACCU-CHEK at 0, 15, 30, 45, 60, 120 minutes.

[1] = Pharmacokinetics assay in rats (LC/MS/MS plasma concentration); type: in vivo, SD rats; conditions: for Vd/F: read-out: Vz/F; for F: intragastric 3.0 mg/kg (as free base), absolute bioavailability from AUC0-t vs vein injection
From the text: The compound of Example 3 was administrated intragastrically or tail vein injection to rats and the compounds of Example 1-4, Example 9 and Example 11-12 were administrated intragastrically to determine the drug concentration in plasma at different time points by LC/MS/MS measurement. The pharmacokinetics of the compounds of the present invention was studied and evaluated in rats. And the oral absolute bioavailability was investigated.
Compounds of Example 1-4, Example 9 and Example 11-12.
[…] healthy adult SD rats, male and female in half, were purchased from SINO-BRITSH SIPPR/BK LAB.ANIMAL LTD., CO, License number: SCXK (Shanghai) 2008-0016.
Vein injection group: the proper weighed test compound was dissolved in 0.5 mL of DMSO by ultrasound and then diluted with normal saline to 15 mL to form a 0.3 mg/mL solution.
Intragastrically administered group: the proper weighed test compound was dissolved in 0.5% CMC-Na by ultrasound to form a 0.3 mg/mL of suspension.
32 healthy adult SD rats, male and female in half, were divided into 8 groups so that each group consisted 4 rats. After an overnight fast, the rats were tail vein injected of the compound of Example 3 and intragastrically administered the compound of Example 3 and the salt thereof, at a dose of 3.0 mg/kg (calculated as the free base form) and a volume of 10 mL/kg.
Blood samples (0.2 mL) of the rats in vein injection group were taken from eye socket at pre administration and at 2, 15, 30 minutes and 1.0, 2.0, 4.0, 6.0, 8.0, 12.0, 24.0 hours post administration, which were stored in heparinized tubes and centrifuged for 10 minutes at 3,500 rpm. The plasma samples were stored at −20° C. until analysis. The rats were fed 2 hours after administration.
Blood samples of the rats in intragastrically administered group were taken at pre administration and at 0.5, 1.0, 2.0, 3.0, 4.0, 6.0, 8.0, 12.0, 24.0 hours post administration. The samples were treated with the same method as mentioned above.
50 μL of internal standard solution and 150 μL of methanol were added to 50 μL of rat plasma obtained at various time points after administration. Then the mixture was mixed for 3 minutes using a vortexer and centrifuged for 10 minutes at 13,500 rpm. 10 μL of the supernatant was analyzed by LC/MS/MS.
The compartmental model of pharmacokinetics was fitted for the test compounds and the major pharmacokinetic parameters were calculated by DAS 2.0 software in which Cmax and tmax were the actually measured values. The absolute bioavailability was calculated by AUC0-t taken from post administration and vein injection.

DPP-IX = molecular target: T1, DPP-IX (Homo sapiens, UniProt Q86TI2); test: DPP-IX inhibition, Promega DPPIV-Glo Protease Assay; type: biochemical; conditions: read-out: IC50 DPP9
T1 construct: purchased Bioscience 80090
Protocol: (§1) The compounds of the present invention were tested to determine their DPP-IV, DPP-VIII, DPP-IX inhibition activity according to the following methods. The half inhibition concentrations IC50 (the concentration of the test compound showing 50% inhibition to the enzyme activity) of each compound were determined by reaction test and calculation of the mixture of fixed amounts of enzyme and substrate with several different concentrations of the test compounds.
(§2) The compounds of the present invention were tested to determine the DPP-IV, DPP-VIII, DPP-IX inhibition activity in the following tests using Promega DPPIV-Glo™ Protease Assay (Cat No. G8350/G8351) Kit, wherein:
c. DPP-IX enzyme bought from Bioscience, Catalog no. 80090.
(§3) The preparation procedure of the conventional reagent such as DPPIV-Glo buffer, luciferin reagents needed in the test and the detail operation of the test can refer to the specifications of the kits. The assay was carried out as following steps:
(§4) The tested compounds were dissolved in DMSO to prepare a series of different concentrations of the test compound solution. DPPIV-Glo buffer and the freezing luciferin detection reagent were equilibrated to room temperature. The luciferin detection reagent was dissolved in moderate buffer in a brown flask to form a solution. Then DPP-IV-Glo. was dissolved in ultrapure water to give the appropriate concentration. The substrate solution and the luciferin detection reagent solution were mixed sufficiently in an appropriate ratio (the ratio of the invention is 1:49), and the mixture was layed at room temperature for 30-60 minutes. Tris buffer (2 mM, pH 8.0), the test compounds and DPP-IV (DPP-VIII or DPP-IX) were mixed and then transferred to a 96-well plate. Each test contains double-well of three-well control. The same volume of DMSO was added to the negative control and blank control. Then the 96-well plate was added with mixed solution of luciferin detection reagent and substrate to initiate the reaction. The 96-wells plate was incubated at room temperature on a plate shaker for 40 minutes after sealed. The strength of the fluorescent signal in each well was determined by microplate reader and the inhibition rate to the enzyme of the compound at this concentration was calculated by the formula as following: inhibitory rate: IR=[1−(S−B)/(N−B)]*100% • S: value of the sample • B: value of the blank control • N: value of the negative control
(§5) IC50 of the test compounds can be calculated by the inhibition rate at different concentration.

DPP-IV [2] = molecular target: T2, DPP-IV (Homo sapiens, UniProt P27487); conditions: example 10 of PCT/CN2008/001936; cited from earlier work
T2 construct: purchased Calbiochem 317630

[3] = Solubility experiment in four systems; type: physicochemical
Protocol: According to the conventional solubility measurement, the solubility of the test samples were determined in four different systems: phosphate buffer solution (PBS, pH=7.4), methanol, 0.1% hydrochloric acid and water.

DPP-VIII = molecular target: T3, DPP-VIII (Homo sapiens, UniProt Q6V1X1); test: DPP-VIII inhibition, Promega DPPIV-Glo Protease Assay; type: biochemical; conditions: read-out: IC50 DPP8
T3 construct: purchased Bioscience 80080
Protocol: as §1, §2
b. DPP-VIII enzyme bought from Bioscience, Catalog no. 80080;
as §3, §4, §5

DPP-IV [4] = molecular target: T2, DPP-IV; test: DPP-IV inhibition, Promega DPPIV-Glo Protease Assay; type: biochemical
Protocol: as §1, §2
a. DPP-IV enzyme bought from Calbiochem, Catalog no. 317630;
as §3, §4, §5

[5] = both sexes, SD, rat, plasma, po, 3 mg/kg, intragastric 3.0 mg/kg
[6] = both sexes, SD, rat, plasma, po, 3 mg/kg, intragastric 3.0 mg/kg, read-out: AUC0-t
[7] = both sexes, SD, rat, plasma, po, 3 mg/kg, intragastric 3.0 mg/kg, read-out: CL/F (converted)
[8] = both sexes, SD, rat, plasma, po, 3 mg/kg, intragastric 3.0 mg/kg, read-out: Cmax
[9] = both sexes, SD, rat, plasma, po, 3 mg/kg, intragastric 3.0 mg/kg, read-out: MRT
[10] = both sexes, SD, rat, plasma, po, 3 mg/kg, intragastric 3.0 mg/kg, read-out: Tmax
[11] = 0.1% hydrochloric acid, simulated gastric fluid, 0.1% hydrochloric acid, read-out: Solubility Value, 0.1% HCl
[12] = methanol, organic solvent or mixture, methanol, read-out: Solubility Value, methanol
[13] = phosphate buffer solution (PBS), pH 7.4, aqueous buffer, PBS pH 7.4, read-out: Solubility Value, PBS (pH 7.4)
[14] = water, read-out: Solubility Value, water
[15] = intragastric 3.0 mg/kg, phosphate

T3 sequence (Q6V1X1 whole entry): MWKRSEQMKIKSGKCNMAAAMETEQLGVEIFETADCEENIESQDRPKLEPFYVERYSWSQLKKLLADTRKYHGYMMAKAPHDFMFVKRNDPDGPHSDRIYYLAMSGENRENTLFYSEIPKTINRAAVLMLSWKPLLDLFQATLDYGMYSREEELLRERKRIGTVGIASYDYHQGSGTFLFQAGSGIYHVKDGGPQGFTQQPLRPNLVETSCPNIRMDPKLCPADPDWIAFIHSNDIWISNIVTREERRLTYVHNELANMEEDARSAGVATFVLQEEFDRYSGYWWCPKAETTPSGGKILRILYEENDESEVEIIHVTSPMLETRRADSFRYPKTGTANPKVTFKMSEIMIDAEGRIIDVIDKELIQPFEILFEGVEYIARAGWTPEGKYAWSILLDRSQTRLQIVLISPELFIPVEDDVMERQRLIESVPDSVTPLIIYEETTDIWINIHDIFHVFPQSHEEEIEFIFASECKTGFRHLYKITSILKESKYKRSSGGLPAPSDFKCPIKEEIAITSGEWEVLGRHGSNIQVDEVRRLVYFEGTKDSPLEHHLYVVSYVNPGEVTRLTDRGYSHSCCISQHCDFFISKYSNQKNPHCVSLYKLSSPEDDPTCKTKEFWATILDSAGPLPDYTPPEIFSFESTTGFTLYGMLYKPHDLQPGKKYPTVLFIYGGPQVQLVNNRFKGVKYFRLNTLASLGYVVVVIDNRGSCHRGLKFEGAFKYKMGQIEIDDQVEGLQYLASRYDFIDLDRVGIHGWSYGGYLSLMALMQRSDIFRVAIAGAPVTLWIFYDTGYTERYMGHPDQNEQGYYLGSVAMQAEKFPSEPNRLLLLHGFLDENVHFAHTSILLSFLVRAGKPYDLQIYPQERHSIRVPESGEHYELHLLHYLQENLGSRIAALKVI
T1 sequence (Q86TI2 whole entry): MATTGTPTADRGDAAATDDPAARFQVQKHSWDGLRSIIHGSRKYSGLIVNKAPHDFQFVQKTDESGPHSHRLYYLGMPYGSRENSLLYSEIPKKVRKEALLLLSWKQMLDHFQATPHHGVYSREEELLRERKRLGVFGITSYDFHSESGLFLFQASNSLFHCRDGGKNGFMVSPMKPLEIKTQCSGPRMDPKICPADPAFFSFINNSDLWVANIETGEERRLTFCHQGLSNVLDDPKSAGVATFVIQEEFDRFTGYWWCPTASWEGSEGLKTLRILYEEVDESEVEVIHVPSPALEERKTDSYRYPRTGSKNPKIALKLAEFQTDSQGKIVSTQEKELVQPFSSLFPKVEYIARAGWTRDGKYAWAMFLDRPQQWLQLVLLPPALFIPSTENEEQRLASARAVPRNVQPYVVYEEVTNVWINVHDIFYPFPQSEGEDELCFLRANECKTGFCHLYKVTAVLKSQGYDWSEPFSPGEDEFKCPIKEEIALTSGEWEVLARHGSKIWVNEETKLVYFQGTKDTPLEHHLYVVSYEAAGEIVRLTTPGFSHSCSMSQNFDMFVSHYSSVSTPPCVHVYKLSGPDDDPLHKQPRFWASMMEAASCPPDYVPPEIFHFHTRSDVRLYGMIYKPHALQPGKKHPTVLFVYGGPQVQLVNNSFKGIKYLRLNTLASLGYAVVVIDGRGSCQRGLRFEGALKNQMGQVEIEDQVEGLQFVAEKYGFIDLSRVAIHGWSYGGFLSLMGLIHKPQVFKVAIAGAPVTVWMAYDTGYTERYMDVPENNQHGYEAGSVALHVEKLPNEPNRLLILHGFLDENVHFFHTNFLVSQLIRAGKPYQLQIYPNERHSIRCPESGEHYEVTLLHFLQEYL
T2 sequence (P27487 whole entry): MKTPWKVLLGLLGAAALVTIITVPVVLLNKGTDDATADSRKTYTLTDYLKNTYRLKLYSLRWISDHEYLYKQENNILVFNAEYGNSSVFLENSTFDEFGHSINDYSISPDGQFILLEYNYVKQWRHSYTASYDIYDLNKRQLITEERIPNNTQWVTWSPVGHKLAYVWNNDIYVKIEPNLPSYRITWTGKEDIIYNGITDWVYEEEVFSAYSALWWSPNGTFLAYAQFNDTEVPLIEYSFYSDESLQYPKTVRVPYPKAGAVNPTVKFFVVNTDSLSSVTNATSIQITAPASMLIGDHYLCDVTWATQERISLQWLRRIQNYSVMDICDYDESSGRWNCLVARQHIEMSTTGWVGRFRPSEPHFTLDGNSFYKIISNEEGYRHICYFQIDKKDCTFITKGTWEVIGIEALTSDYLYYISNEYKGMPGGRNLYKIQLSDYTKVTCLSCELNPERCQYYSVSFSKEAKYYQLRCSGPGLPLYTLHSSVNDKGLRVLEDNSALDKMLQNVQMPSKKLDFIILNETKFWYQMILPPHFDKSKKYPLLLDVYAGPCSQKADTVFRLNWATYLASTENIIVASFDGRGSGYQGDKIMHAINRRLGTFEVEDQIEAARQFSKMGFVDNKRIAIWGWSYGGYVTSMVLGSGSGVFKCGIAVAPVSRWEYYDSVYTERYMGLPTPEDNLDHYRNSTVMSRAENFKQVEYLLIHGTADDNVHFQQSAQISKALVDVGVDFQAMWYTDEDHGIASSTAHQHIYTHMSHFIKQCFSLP

| SMILES | Hypoglycemic rate of blood sugar of 30 minutes after administration (normal ICR mice) [%] | half-life [1, 5] [h] | AUC(0-t) [1, 6] [ng·h/mL] | CL/F [1, 7] [mL/min/kg] | Cmax [1, 8] [ng/mL] | MRT [1, 9] [h] | Tmax [1, 10] [h] | Vd/F [1, 5] [L/kg] | F [1] [%] | IC50 (DPP-IX) [µM] | solubility [3, 11] [mg/mL] | solubility [3, 12] [mg/mL] | solubility [3, 13] [mg/mL] | solubility [3, 14] [mg/mL] | IC50 (DPP-VIII) [µM] | IC50 (DPP-IV [4]) [µM] | also measured |
| --- | --- | --- | --- | --- | --- | --- | --- | --- | --- | --- | --- | --- | --- | --- | --- | --- | --- |
| Cl.N[C@@H](CC(=O)N1CCn2c(C(F)(F)F)nc(C(=O)O)c2C1)Cc1cc(F)c(F)cc1F [Example 1, (R)-7-[3-Amino-4-(2,4,5-trifluorophenyl)-butanoyl]-3-trifluoromethyl-5,6,7,8-tetrahydro-imidazo[1,5-a]pyrazine-1-carboxylic acid hydrochloride] | 16.06 | 1.74 ± 0.16 | 66.6 ± 19.5 | 760 | 18 ± 7.5 | 3.17 ± 0.36 | 2.5 ± 1 | 114 ± 27 | 2.90 | 63.6 | 17.2 | 31.3 | 18.6 | 20.9 | 87.9 |  | inhibition activity against DPP-IV (in words) (DPP-IV [2]): excellent inhibition activity |
| N[C@@H](CC(=O)N1CCn2c(C(F)(F)F)nc(C(=O)O)c2C1)Cc1cc(F)c(F)cc1F [Example 2, (R)-7-[3-Amino-4-(2,4,5-trifluorophenyl)butanoyl]-3-trifluoromethyl-5,6,7,8-tetrahydro-imidazo[1,5-a]pyrazine-1-carboxylic acid phosphate] |  |  |  |  |  |  |  |  |  | 185 |  |  |  |  | 400 | 0.015 | Hypoglycemic rate of blood sugar of 30 minutes after administration (normal ICR mice; phosphate, 10 mg/kg): 29.96%; pharmacokinetics and bioavailability (conclusion in words) ([1]; compared with other compounds): improved obviously; F ([1]; phosphate): 8.63%; AUC(0-t) [1, 15]: 198.1 ± 57.4 ng·h/mL; CL/F [1, 15]: 270 ± 75.8 mL/min/kg; Cmax [1, 15]: 66.6 ± 36.4 ng/mL; MRT [1, 15]: 4.05 ± 3.66 h; Tmax [1, 15]: 0.92 ± 0.58 h; t1/2 [1, 15]: 1.69 ± 1.24 h; Solubility Value, 0.1% HCl ([3]; 0.1% hydrochloric acid, phosphate): 32.5 mg/mL; Solubility Value, PBS (pH 7.4) ([3]; PBS pH 7.4, phosphate): 20.2 mg/mL; Solubility Value, methanol ([3]; methanol, phosphate): 37.5 mg/mL; Solubility Value, water ([3]; water, phosphate): 26.1 mg/mL |
| N[C@@H](CC(=O)N1CCn2c(C(F)(F)F)nc(C(=O)O)c2C1)Cc1cc(F)c(F)cc1F.O=C(O)C[C@H](O)C(=O)O [Example 11, (R)-7-[3-Amino-4-(2,4,5-trifluorophenyl)butanoyl]-3-trifluoromethyl-5,6,7,8-tetrahydro-imidazo[1,5-a]pyrazine-1-carboxylic acid (2S)-2-hydroxybutanedioic acid] | 20.18 | 2.21 ± 0.69 | 69.5 ± 25.2 | 777 | 13.5 ± 3.9 | 4.5 ± 1.32 | 1.63 ± 1.11 | 140 ± 39 | 3.03 | 180 | 32.6 | 5.4 | 19.5 | 22.2 | 280 | 0.009 |  |
| N[C@@H](CC(=O)N1CCn2c(C(F)(F)F)nc(C(=O)O)c2C1)Cc1cc(F)c(F)cc1F [Example 9, 2-Hydroxyethylammonium (R)-7-[3-amino-4-(2,4,5-trifluorophenyl)butanoyl]-3-trifluoromethyl-5,6,7,8-tetrahydro-imidazo[1,5-a]pyrazine-1-carboxylate] |  | 3.18 ± 0.71 |  |  |  | 4.34 ± 0.66 | 1.25 ± 0.5 |  | 4.06 | 128 |  |  |  |  | 114 | 0.012 | Hypoglycemic rate of blood sugar of 30 minutes after administration (normal ICR mice; 10 mg/kg): 27.56%; AUC(0-t) ([1]; intragastric 3.0 mg/kg): 93.2 ± 36.4 ng·h/mL; CL/F ([1]; intragastric 3.0 mg/kg): 548 ± 167 mL/min/kg; Cmax ([1]; intragastric 3.0 mg/kg): 25.1 ± 13.9 ng/mL; Solubility Value, 0.1% HCl ([3]; 0.1% hydrochloric acid): 12.6 mg/mL; Solubility Value, PBS (pH 7.4) ([3]; PBS pH 7.4): 0.3 mg/mL; Solubility Value, methanol ([3]; methanol): 35.2 mg/mL; Solubility Value, water ([3]; water): 1.0 mg/mL |
